“And” between values parts separate entries of the source, which are not always exact repeats. Equal entries are not always repeated. “Also recorded” adds a separate entry of the source. Where two headings read alike, the source gives them in different places.
Assays:
[1] = set-up: method as in PMID 26496207; settings: cited from earlier work
[2] = tested on: primary human lymphoma samples; set-up: method as in PMID 19549914, PMID 25725417; settings: ex vivo; cited from earlier work
[3] = tested on: murine lymphoma cell lines; set-up: method as in PMID 19549914, PMID 25725417; settings: in vitro; cited from earlier work
[4] = tested on: normal dogs; assay: Laboratory health assessments (complete blood cell count, biochemistry panel, urinalysis); format: in vivo, dog
Procedure: (§1) Safety was assessed by evaluation of standard physical and laboratory parameters of systemic health. A full physical examination was performed prior to initiation of the study and on each treatment and sampling day. Indirect blood pressure monitoring was performed using Cardell Vet Monitor 9401 Blood Pressure Monitor. Pulse was quantified as heart beats per minute according to manual counts, as well as quantified with a blood pressure monitor. There was good correlation between pulse rates counted with manual methods compared to the blood pressure monitor (Figure S1). Standard laboratory assessments (complete blood cell count, biochemistry panel, urinalysis) were repeated throughout the phases of the study to assess systemic health.

[5] = tested on: normal dogs; assay: Histopathologic evaluation of necropsy tissues; format: in vivo, dog; settings: 0.25 mg/kg Mon/Wed/Fri five doses
Procedure: Tissue samples collected at necropsy were stored in 10% neutral buffered formalin, paraffin embedded, sectioned, and stained with hematoxylin and eosin. Histopathologic evaluations of the tissues were performed by a veterinary pathologist (KGB).

[6] = Multiple dose pharmacokinetic study, plasma MnBuOE; format: in vivo, dog
Procedure: MnBuOE was administered at 0.25 mg/kg Monday, Wednesday, and Friday (MWF). Dogs were treated concurrently with diphenhydramine (2 mg/kg every 12 h), famotidine (0.5 mg/kg every 12 h), and prednisone (1 mg/kg every 12 h) throughout these studies. Blood/plasma was collected at two time points: 1 h post dose (expected high levels but “safely” away the peak at C max = 0.5 h) and just prior to injection (trough level). The results are presented on Fig. 4a. As expected, the trough levels measured were very low. […] This would imply that no change in the expected mild acute side effects should be observed. […] The change in pulse increased over time for both treatment week and day of the week. Baseline pulse prior to injection was not altered with multiple doses of MnBuOE.

[7] = tested on: nonhuman primates; set-up: method as in PMID 27098749; settings: sc every 3 days for 5 weeks; cited from earlier work
[8] = mice, cited from earlier work
[9] = Single-dose pharmacokinetic study, plasma MnBuOE by LC-MS/MS; format: in vivo, dog
Procedure: Intravenous catheters were placed in the jugular vein of each dog under heavy sedation (dexmedetomidine, 500 mcg/m^2) 24-h prior to initiation of the pharmacokinetic study to facilitate blood sampling. Baseline pulse and blood pressure (Cardell Vet Monitor 9401 Blood Pressure Monitor) were recorded prior administration of MnBuOE. MnBuOE (5.64 mg/mL) was injected subcutaneously in the dorsal intrascapular region. Following injection, 3–6 mL of blood was collected after 10 min, 30 min, 1 h, 2 h, 4 h, 6 h, 8 h, 24 h, 48 h, 72 h, 7 days, and 14 days into lithium heparin tubes (Vacutainer, 1.3 mL). Whole blood was centrifuged at 1500×g for 20 min, and plasma was collected and stored in 1% citric acid at −80 °C.
Relevant PK parameters (e.g. C max, T max, AUC, clearance, t 1/2) were obtained by compartmental and non-compartmental modules within WinNonlin v. Plasma MnBuOE levels peaked at 30 min post-injection with a mean concentration of 3.993 μM (Fig. 2a), followed by a complex tissue distribution profile (non-linear trace in log-linear plot) within first 6 h post injection (Fig. 2a). […] Compartmental (first-order absorption—2 compartment model) calculations including 0–48 h data were performed on the averaged PK profile for the purpose of obtaining PK parameters needed for the simulation of the multi-dose regimen.

[10] = set-up: method as in PMID 27098749; settings: non-human primates, 1 mg/kg; cited from earlier work
[11] = tested on: normal dogs; assay: Pulse monitoring in multiple dose study; format: in vivo, dog; settings: 0.25 mg/kg sc Mon/Wed/Fri
Procedure: as §1

[12] = tested on: mice; set-up: method as in PMID 27098749; settings: sc every 3 days for 5 weeks; cited from earlier work
[13] = set-up: method as in unpublished data; settings: rats, 1 mg/kg; ref unpublished data; cited from earlier work
[14] = tested on: normal dogs; assay: Maximally tolerated dose / single-dose safety monitoring (pulse, blood pressure, drug reactions); format: in vivo, dog; settings: for average heart rate at peak: 1 h after injection
Procedure: as §1
Thus, 1 mg/kg was selected as a safe initial dose for the MTD and single-dose PK studies in this work.

[15] = 3 weeks post 0.25 mg/kg Mon/Wed/Fri, concurrent oral medications
[16] = 0.25 mg/kg sc Mon/Wed/Fri for 3 weeks, 1 h post-injection
[17] = single 1 mg/kg sc, first order absorption two compartments
[18] = single 1 mg/kg sc, non-compartmental

## CC[n+]1ccccc1-c1c2nc(c(-c3cccc[n+]3CC)c3ccc([n-]3)c(-c3cccc[n+]3CC)c3nc(c(-c4cccc[n+]4CC)c4ccc1[n-]4)C=C3)C=C2.[Mn+3] [MnTE-2-PyP5+]
[1]
  tissue accumulation, tumor compared to normal tissue: accumulates preferentially in tumor tissue compared to normal tissue
[2]
  effect on chemotherapeutic response: enhanced the chemotherapeutic response
[3]
  effect on chemotherapeutic response: enhanced the chemotherapeutic response

## CCCCOCC[n+]1ccccc1-c1c2nc(c(-c3cccc[n+]3CCOCCCC)c3ccc([n-]3)c(-c3cccc[n+]3CCOCCCC)c3nc(c(-c4cccc[n+]4CCOCCCC)c4ccc1[n-]4)C=C3)C=C2.[Mn+3] [MnBuOE, Mn(III) meso-tetrakis (N-n-butoxyetylpyridium-2-yl) porphyrin]
[4]; 3 weeks post 0.25 mg/kg Mon/Wed/Fri
  Urinalysis: Alkaline urine (pH = 9) (n = 2/3)
[4]; 3 weeks post 0.25 mg/kg Mon/Wed/Fri, concurrent diphenhydramine, famotidine, prednisone
  Complete blood cell count: Stress leukogram (exogenous glucocorticoids) (n = 3/3)
[4]; [15]
  Chemistry panel: acid-base finding: Slight to mild metabolic acidosis (increased anion gap)
  Chemistry panel: cholesterol finding: Mild hypocholesterolemia
  Chemistry panel: liver enzyme finding: Mildly increased liver enzyme activity (ALP, ALT)
[4]; 48 h post 0.25 mg/kg
  Chemistry panel: No remarkable changes in serum biochemistries were seen; also recorded: Unremarkable
  Complete blood cell count: Unremarkable
[4]; 48 h post 0.25 mg/kg, one dog analyzed
  Urinalysis: Alkaline urine (pH = 9) (n = 1/1)
[4]; 48 h post 1 mg/kg
  Chemistry panel: Unremarkable
  Complete blood cell count: Unremarkable
  Urinalysis: Alkaline urine (pH = 9) (n = 2/3)
[4]; final day of 3-week 0.25 mg/kg study, reference range 11.2–19.9
  mean anion gap: 21.5
[4]; final day of 3-week 0.25 mg/kg study, reference range 12–54 IU/L
  mean ALT: 133 IU/L
[4]; final day of 3-week 0.25 mg/kg study, reference range 16–140 IU/L
  mean ALP: 203 IU/L
[4]; final day of 3-week 0.25 mg/kg study, reference range 124–344 mg/dL
  mean cholesterol: 96 mg/dL
[5]; necropsy
  Characteristics of lesion, kidney: Acute, multifocal, mild Acute multifocal, moderate
  Characteristics of lesion, liver: Marked, multifocal to diffuse, random Marked, multifocal to diffuse, centrilobular to random Marked, diffuse, panlobular, random
  Characteristics of lesion, lung: Multifocal, mild, neutrophilic, sterile Multifocal, moderate, neutrophilic sterile
  Characteristics of lesion, subcutaneous adipose: Multifocal, mild
  Histopathologic appearance, lymph nodes: mildly reactive
  Incidence of diagnosis, kidney: n = 3/3
  Incidence of diagnosis, liver: n = 3/3
  Incidence of diagnosis, lung: n = 3/3
  Incidence of diagnosis, subcutaneous adipose: n = 3/3
[5]; necropsy 48 h after last dose
  Histopathologic diagnosis, kidney: acute, mild to moderate tubular degeneration and necrosis of the kidney
  Histopathologic diagnosis, liver: marked hydropic degeneration of the liver
  Histopathologic diagnosis, lung: mild to moderate sterile bronchointerstitial/interstitial pneumonia
  Histopathologic diagnosis, subcutaneous adipose (injection site): mild necrosupporative/granulomatous inflammation; also recorded: Necrosuppurative/granulomatous steatitis
[6]; [16]
  plasma MnBuOE concentration following the initial dose: 1.4 µM
  plasma MnBuOE concentration plateau with subsequent doses: 0.85 to 1.1 µM
[6]; 0.25 mg/kg sc Mon/Wed/Fri, just prior to injection
  trough plasma levels: very low
[6]; 0.25 mg/kg sc Mon/Wed/Fri, long-term treatment
  accumulation of the drug in plasma: no accumulation of the drug in plasma was observed; also recorded: no accumulation observed over time
[7]
  no adverse effects level (NOAEL), loading dose: 6 mg/kg
  no adverse effects level (NOAEL), maintenance dose: 2 mg/kg
[8]; 1 mg/kg, ref unpublished data
  Cmax: 1000 nM
[8]; dose adjusted from 6 mg/kg
  Cmax: ~300 nM
[9]; single 1 mg/kg sc, 6 to 48 h
  plasma half-life t 1/2, primary elimination from central compartment: 7 h
[9]; single 1 mg/kg sc, 30 min post-injection, 1 mg/kg, read-out: peak plasma concentration (C max), mean
  Cmax: 3990 nM and 4000 nM
[9]; single 1 mg/kg sc, 48 h to 14 days
  estimated terminal half-life (secondary processes): 480 h
[9]; single 1 mg/kg sc, at 48 h
  MnBuOE remaining in plasma: 1%
[9]; single 1 mg/kg sc, post-injection
  time of peak plasma drug concentration (T max): 0.5 h
[9]; [17]
  AUCinfinite: 42.52
  C max: 4830 ng/mL
  CL/F: 0.02 L/h/kg body weight
  V/F (4–48 h process): 0.14 L/kg body weight
  t 1/2 (4–48 h): 6.64 h
[9]; single 1 mg/kg sc, first order absorption two compartments, averaged profile 0–48 h
  t max: 0.46 h
[9]; [18]
  AUC0–48h: 52.09
  AUCinfinite: 57.82
  C max: 5000 ng/mL
  CL/F: 0.020 L/h/kg body weight
  V/F (4–48 h process): 0.21 L/kg body weight
  V/F (7–14 day process): 13.42 L/kg body weight
  t 1/2 (4–48 h): 7.13 h
  t 1/2 (7–14 day): 509.8 h
[9]; single 1 mg/kg sc, non-compartmental (WinNonlin), individual dogs
  t max: 0.5 h
[9]; single-dose 14-day PK study, after 48 h
  drug eliminated from the plasma: 99%
[10]
  Cmax: 1600 nM
[11]
  heart rate 1 h after each injection: Mildly to moderately increased heart rate
[11]; multiple doses
  baseline pulse prior to injection: not altered
[12]
  no adverse effects level (NOAEL), loading dose: 12 mg/kg
  no adverse effects level (NOAEL), maintenance dose: 2 mg/kg
[13]
  Cmax: 1000 nM
[14]; 0.25 mg/kg sc
  heart rate following injection: 104–116 beats per minute
  pulse 24 h post-injection: did not alter pulse rate 24 h post-injection; also recorded: normalized by 24 h
  tachycardia grade: did not induce a clinical tachycardia; also recorded: mild increase in heart rate
[14]; 0.25 mg/kg sc with premedication
  anaphylactic or local drug reactions: No anaphylactic or local drug reactions were observed
[14]; 0.5 mg/kg sc
  local drug reaction at the injection site: No local drug reaction at the injection site was noted
  pulse 24 h post-injection: remained slightly increased
  tachycardia grade: mild to moderate tachycardia
[14]; 0.5 mg/kg sc, one dog
  average heart rate at peak: 144 beats per minute
[14]; 0.5 mg/kg sc, one dog, pre-administration of diphenhydramine, famotidine, prednisone
  anaphylactic reaction: did not occur
[14]; 1 mg/kg sc
  blood pressure change with tachycardia: not associated with changes in blood pressure
  local drug reactions in the subcutaneous site of injection: occurred with two of the dogs
  persistence of tachycardia: at least 6 h
  pulse 24 h post-injection: remained increased compared to resting heart rates
  tachycardia grade: severe sinus tachycardia
  average heart rate at peak: 210 beats per minute
[14]; 1 mg/kg sc, following injection
  time to development of acute anaphylactic drug reaction: 15 to 20 min
[14]; 1 mg/kg sc, no premedication
  acute drug reaction: acute anaphylactic drug reaction; also recorded: induced an anaphylactic drug reaction
[14]; sc, dogs, with premedication (anti-histamines, steroids)
  maximum tolerated dose (MTD): 0.25 mg/kg
[14]; single sc dose, Supplemental Fig. 2
  indirect blood pressure after single dose: subclinical fluctuations in recorded indirect blood pressures
